In patent US8809373B2, “Pyridine non-classical cannabinoid compounds and related methods of use” (priority 2008, dated 2014):

Columns and labels:
[1] = tested on: glioblastoma brain cancer cell line DBTRG05MG; assay: Cytotoxicity assay (CCK8 viability), DBTRG05MG; format: cell-based; conditions: Homo sapiens, DBTRG-05MG, DBTRG05MG cells, 18 hours drug incubation, 1% FBS media
Description: (§1) Cytoxocity assay: Cells were seeded on a 96 well polystyrene plate in full serum media at a density of 75,000 cells per milliliter, 100 μL per well. Plates were incubated at 37° C. and 5% CO2 for 24 hours to allow cell attachment. Drug solutions were prepared in DMSO at 100× concentration and mixed 1:100 in 1% FBS media to yield the desired concentration. Drug-media mixtures were vortexed immediately prior to administration to cells. Full serum media was removed and replaced with drug-media mixtures and incubated for 18 hours. 10 μL of Cell Counting Kit 8 (CCK8, Dojindo# CK04-11) was added to each well to colormetrically assess viability. After 2-4 hours of incubation with the CCK8 dye, absorbance was read at 450 nm by a BioTek Synergy 2 plate reader.
(§2) The cytotoxicity of selected compounds against the glioblastoma brain cancer cell line LN-229 is depicted in Table 1.

[2] = tested on: glioblastoma brain cancer cell line LN-229; assay: Cytotoxicity assay (CCK8 viability), LN-229; format: cell-based; conditions: Homo sapiens, LN-229 cells, 18 hours drug incubation, 1% FBS media
Description: as §1, §2

| Compound | EC50 [1] [µM] | EC50 [2] [µM] |
| --- | --- | --- |
| CC(C)(c1ccccc1)c1cc(O)c(-c2cc(Cl)cc(Cl)c2)c(O)n1 [Compound 8c, 3-(3,5-Dichlorophenyl)-6-(2-phenylpropan-2-yl)pyridine-2,4-diol] | 33.6 | 29.2 |
| CCCCCCC(C)(C)c1cc(O)c(-c2ccccc2)c(O)n1 [Compound 8j, 6-(2-Methyloctan-2-yl)-3-phenylpyridine-2,4-diol] | 55.7 | 52.6 |
| CCCCCCC(C)(C)c1nc(O)c(-c2cccc(C)c2)c(O)n1 [Compound 8h, 2-(2-Methyloctan-2-yl)-5-m-tolylpyrimidine-4,6-diol] | 29.2 | 24.6 |
| Cc1cccc(-c2c(O)cc(C(C)(C)C3CCCCC3)nc2O)c1 [Compound 8f, 6-(2-Cyclohexylpropan-2-yl)-3-m-tolylpyridine-2,4-diol] | – | 71.1 |
| CCCCCCC(C)(C)c1cc(O)c(-c2cccc(OC)c2)c(O)n1 [Compound 8m, 3-(3-Methoxyphenyl)-6-(2-methyloctan-2-yl)pyridine-2,4-diol] | 56 | 41.7 |
| CCCCCCC(C)(C)c1cc(O)c(Cc2ccccc2)c(O)n1 [Compound 8n, 3-Benzyl-6-(2-methyloctan-2-yl)pyridine-2,4-diol] | 25.2 | 13.1 |
| CCCCCCC(C)(C)c1cc(O)c(-c2cc(Cl)cc(Cl)c2)c(O)n1 [Compound 8e, 3-(3,5-dichlorophenyl)-6-(2-methyloctan-2-yl)pyridine-2,4-diol] | 4.1 | 1.6 |
| CC(C)(c1cc(O)c(-c2cc(Cl)cc(Cl)c2)c(O)n1)C1CCCCC1 [Compound 8b, 6-(2-Cyclohexylpropan-2-yl)-3-(3,5-dichlorophenyl)pyridine-2,4-diol] | 9.8 | 5.9 |
